# According to publication PMC4919066 (PLoS Pathogens, 2016):
# Counter-ions that a name gives are not always drawn.
# Tests used:
# [1] = test system: pp28-luciferase HCMV Towne; assay: microbe, parasite or virus in culture; assay type: cell-based, Human Cytomegalovirus; conditions: for normalized pp28-luciferase activity: emetine 75 nM, 72 hpi
# Procedure: The pp28-luciferase HCMV Towne and a GCV-resistant pp28-luciferase were used. The recombinant viruses express luciferase under the control of the late CMV gene promoter, pp28. Luciferase expression is activated 48–72 hours post infection (hpi). The recombinant viruses provide a highly-sensitive reporter system which correlates with plaque reduction assay. […] Human herpes virus strains were: luciferase HSV1- KOS/Dlux/oriS [52] and clinical isolates of HSV2. The clinical isolates were provided by the clinical microbiology laboratory with no identifiers that can link to a specific subject.
# Infection with HCMV or HSV was performed in HFFs, and infection with mouse CMV was performed in MEFs. For HCMV, cells were seeded in either a 96-well plate or 100 mm culture plates (Corning Costar, Sigma Aldrich) at 0.5 or 2 million cells /plate. Following 90 minute adsorption, media was removed and cells were washed with PBS. Media containing 4% FBS and compounds were added to each well. Infected treated HFFs were collected at 72 hpi and lysates were assayed for luciferase activity using a luciferase assay kit (Promega, Madison, WI) on GloMax-Multi+ Detection System (Promega). In second cycle assays, supernatants were collected from all conditions of the first cycle at 96 hpi and used for infection of fresh HFFs in 96-well plates. […] For HSV1-KOS/Dlux/oriS, a luciferase assay was performed at 24 hpi. […] For HCMV or MCMV, HFFs or MEFs were seeded at 0.5 or 2 million cells /plate in a 12-well plate and infected 24 hours later at 100 PFU/well. Following virus adsorption (60 min and 90 min for HSV and HCMV, respectively), virus was aspirated, and DMEM containing 4% fetal bovine serum (FBS) with (for HSV) or without (for HCMV/MCMV) 0.5% carboxymethyl-cellulose, were added with the compounds at indicated concentrations into triplicate wells. After incubation at 37°C for 10 days (for HCMV), 3 days for MCMV or 2 days (for HSV), the overlay was removed and plaques were counted after crystal violet staining.
# HCMV = assay: Anti-HCMV activity in RPS14 knockdown cells (sh-RPS14); assay type: cell-based, Human Cytomegalovirus; conditions: emetine 75 nM, luciferase, plaque reduction, viral proteins at 72 hpi
# Procedure: Human Foreskin Fibroblasts (HFFs) passage 12–16 (ATCC, CRL-2088) and mouse embryonic fibroblasts (MEFs) passage 9–14 (ATCC, CRL-1658) were grown in Dulbecco's Modified Eagle Medium (DMEM) containing 10% fetal bovine serum (FBS) (Gibco, Carlsbad, CA) in a 5% CO2 incubator at 37°C. Infection with HCMV or HSV was performed in HFFs, and infection with mouse CMV was performed in MEFs. For HCMV, cells were seeded in either a 96-well plate or 100 mm culture plates (Corning Costar, Sigma Aldrich) at 0.5 or 2 million cells /plate. Following 90 minute adsorption, media was removed and cells were washed with PBS. Media containing 4% FBS and compounds were added to each well. Infected treated HFFs were collected at 72 hpi and lysates were assayed for luciferase activity using a luciferase assay kit (Promega, Madison, WI) on GloMax-Multi+ Detection System (Promega). […] Luciferase activity was measured 72 h following second cycle infection. […] After incubation at 37°C for 10 days (for HCMV), 3 days for MCMV or 2 days (for HSV), the overlay was removed and plaques were counted after crystal violet staining.
# Human TRC lentiviral shRNA constructs (Sigma-Aldrich) were used for RPS14 knockdown (KD) in HFFs. […] Control HFFs and RPS14 KD HFFs were counted and equal number of cells was plated prior to infection or treatment.
# [2] = test system: clinical isolates of HSV2; assay: HSV-2 plaque assay in HFFs; assay type: cell-based; conditions: Human alphaherpesvirus 2, read-out: Mean EC50 ± SD
# Procedure: The pp28-luciferase HCMV Towne and a GCV-resistant pp28-luciferase were used. The recombinant viruses express luciferase under the control of the late CMV gene promoter, pp28. Luciferase expression is activated 48–72 hours post infection (hpi). The recombinant viruses provide a highly-sensitive reporter system which correlates with plaque reduction assay. The Towne HCMV strain (ATCC VR-977) was used for plaque reduction, quantitative reverse transcriptase PCR (qRT-PCR), and immunoprecipitation assays. Human herpes virus strains were: luciferase HSV1- KOS/Dlux/oriS [52] and clinical isolates of HSV2. The clinical isolates were provided by the clinical microbiology laboratory with no identifiers that can link to a specific subject. Murid Herpesvirus (MCMV: ATCC VR-1399) was used for infection of mouse embryonic fibroblasts (MEFs) and mice.
# Human Foreskin Fibroblasts (HFFs) passage 12–16 (ATCC, CRL-2088) and mouse embryonic fibroblasts (MEFs) passage 9–14 (ATCC, CRL-1658) were grown in Dulbecco's Modified Eagle Medium (DMEM) containing 10% fetal bovine serum (FBS) (Gibco, Carlsbad, CA) in a 5% CO2 incubator at 37°C. […] Luciferase activity was measured 72 h following second cycle infection. […] After incubation at 37°C for 10 days (for HCMV), 3 days for MCMV or 2 days (for HSV), the overlay was removed and plaques were counted after crystal violet staining.
# [3] = test system: protein synthesis in HFFs; assay: Translation inhibition assay; assay type: cell-based, human; conditions: nM concentrations, non-infected or HCMV-infected cells, 24 h
# Procedure: […] HFFs were seeded in a 96-well black, clear bottom tissue culture plate. […] A protein synthesis assay kit (Cayman Chemical, Ann Arbor, Michigan) was used according to manufacturer's protocol to quantify emetine-mediated translation inhibition using a fluorescence based assay.
# [4] = test system: pp28-luciferase HCMV Towne; assay: Drug combination with GCV, Bliss model; assay type: cell-based, Human Cytomegalovirus; conditions: emetine combined with GCV, luciferase assay
# Procedure: The combined inhibitory effect of compounds on HCMV replication was determined in infected HFFs as previously reported. The Bliss model, in which drug combination represents the product of two probabilistically independent events, was used for analysis.
compound,measurement,setting,value
"CC[C@H]1CN2CCc3cc(OC)c(OC)cc3[C@@H]2C[C@@H]1C[C@H]1NCCc2cc(OC)c(OC)cc21 [emetine, emetine dihydrochloride hydrate]",EC50,"[1]; Human betaherpesvirus 5, read-out: EC50 against pp28-luciferase Towne",40 ± 1.72 nM
same,normalized pp28-luciferase activity,[1]; increased cell density,significant reduction
same,normalized pp28-luciferase activity,[1]; low cell density,no reduction
same,Hill slope of the concentration-response curve,"[1]; pp28-luciferase Towne, HFFs",3.1
same,HCMV inhibition in high-density sh-RPS14 cells,HCMV,unable to inhibit HCMV
same,EC50,[2],33 nM
same,inhibition of protein synthesis,[3],did not inhibit protein synthesis
same,HCMV inhibition in combination with GCV,[4],synergistic
